Test system: HIV-1 frameshift signal sequence
Assay: dual luciferase assay for viral programmed ribosomal frameshifting
Format: cell-based
Text: For example, the ability of a compound to modulate the efficiency of viral programmed ribosomal frameshifting can be validated in a dual luciferase assay comprising: (a) contacting a compound with a host cell expressing a nucleic acid construct comprising in 5′ to 3′ order: (i) a promoter sequence; (ii) the Renilla luciferase (rluc) gene; (iii) the HIV-1 frameshift signal sequence; (iv) the firefly luciferase gene (flue); and (v) a polyadenylation sequence; and (b) detecting the activity of Renilla luciferase versus that of firefly luciferase, wherein a compound that modulates the efficiency of programmed ribosomal frameshifting is validated if (i) the activity of Renilla luciferase in the presence of the compound is not changed relative to the activity of Renilla luciferase detected in the absence of the compound; and (ii) the activity of firefly luciferase detected in the presence of the compound is changed relative to the activity of firefly luciferase detected in the absence of the compound. In other words, the ratio of Renilla luciferase to firefly luciferase is changed in the presence of the compound relative to the absence of the compound.
The ability of Compound 1 to modulate the efficiency of viral programmed ribosomal frameshifting was measured using a dual luciferase assay (as described in Biswas, et al., 2004, J. Virol. 78(4):2082-2087).

COc1ccc2c(c1)C(=O)N(c1ccc(C(C)C)cc1)C2 [Compound 1, 2-(4-isopropylphenyl)-6-methoxyisoindolin-1-one]
modulates the efficiency of viral programmed ribosomal frameshifting (dual luciferase assay): modulates the efficiency of viral programmed ribosomal frameshifting | inhibition in luciferase activity relative to negative control (relative to 0.5% DMSO, average at compound test concentration approximately 5 μM to approximately 130 μM (FIG. 1)): approximately 5 fold
